Test results published in US9505745B2, “Enhancer of zeste homolog 2 inhibitors” (GlaxoSmithKline Intellectual Property (No.2) Limited, priority 2013, dated 2016).
Counter-ions that a name gives are not always drawn.

Columns and labels:
[1] = target: T1, EZH2 within the PRC2 complex (Homo sapiens (Human), UniProt Q15910); experiment: EZH2 methyltransferase SPA, mononucleosome substrate (Assay Protocol 1); format: biochemical; settings: HeLa mononucleosome substrate, 3H-SAM, ≦10 nM approaches limit of detection
T1 sequence (Q15910 whole entry): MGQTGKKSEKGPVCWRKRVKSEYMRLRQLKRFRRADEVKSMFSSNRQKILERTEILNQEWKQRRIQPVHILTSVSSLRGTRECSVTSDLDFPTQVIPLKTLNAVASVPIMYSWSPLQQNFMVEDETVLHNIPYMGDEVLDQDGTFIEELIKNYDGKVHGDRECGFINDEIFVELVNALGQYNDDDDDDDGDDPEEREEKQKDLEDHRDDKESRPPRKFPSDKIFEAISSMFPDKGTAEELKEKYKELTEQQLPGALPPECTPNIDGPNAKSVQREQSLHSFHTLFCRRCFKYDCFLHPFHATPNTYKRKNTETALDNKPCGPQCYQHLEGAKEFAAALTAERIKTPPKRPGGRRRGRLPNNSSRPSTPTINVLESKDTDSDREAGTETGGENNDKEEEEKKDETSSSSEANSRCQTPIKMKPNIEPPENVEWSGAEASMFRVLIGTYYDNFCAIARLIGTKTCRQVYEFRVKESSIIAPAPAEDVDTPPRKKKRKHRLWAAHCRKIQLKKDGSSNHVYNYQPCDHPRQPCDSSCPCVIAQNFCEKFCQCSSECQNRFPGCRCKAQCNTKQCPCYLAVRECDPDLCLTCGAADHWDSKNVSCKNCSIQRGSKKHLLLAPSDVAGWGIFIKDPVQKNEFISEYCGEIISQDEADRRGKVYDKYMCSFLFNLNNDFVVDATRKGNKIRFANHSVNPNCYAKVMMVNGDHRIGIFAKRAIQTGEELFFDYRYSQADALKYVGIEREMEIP
T1 sequence (O75530 whole entry partner): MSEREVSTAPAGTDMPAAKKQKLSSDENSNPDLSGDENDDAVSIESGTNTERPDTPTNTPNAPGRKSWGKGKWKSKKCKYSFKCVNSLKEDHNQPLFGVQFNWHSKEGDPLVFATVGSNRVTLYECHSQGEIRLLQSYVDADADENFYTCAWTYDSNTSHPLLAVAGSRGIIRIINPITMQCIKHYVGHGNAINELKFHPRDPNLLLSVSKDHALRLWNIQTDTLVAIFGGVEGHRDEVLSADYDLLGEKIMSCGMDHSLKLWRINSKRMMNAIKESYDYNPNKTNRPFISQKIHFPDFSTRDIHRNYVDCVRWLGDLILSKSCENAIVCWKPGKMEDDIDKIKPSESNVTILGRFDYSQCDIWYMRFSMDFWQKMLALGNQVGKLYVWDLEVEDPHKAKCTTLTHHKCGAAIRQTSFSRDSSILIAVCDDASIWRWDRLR
T1 sequence (Q15022 whole entry partner): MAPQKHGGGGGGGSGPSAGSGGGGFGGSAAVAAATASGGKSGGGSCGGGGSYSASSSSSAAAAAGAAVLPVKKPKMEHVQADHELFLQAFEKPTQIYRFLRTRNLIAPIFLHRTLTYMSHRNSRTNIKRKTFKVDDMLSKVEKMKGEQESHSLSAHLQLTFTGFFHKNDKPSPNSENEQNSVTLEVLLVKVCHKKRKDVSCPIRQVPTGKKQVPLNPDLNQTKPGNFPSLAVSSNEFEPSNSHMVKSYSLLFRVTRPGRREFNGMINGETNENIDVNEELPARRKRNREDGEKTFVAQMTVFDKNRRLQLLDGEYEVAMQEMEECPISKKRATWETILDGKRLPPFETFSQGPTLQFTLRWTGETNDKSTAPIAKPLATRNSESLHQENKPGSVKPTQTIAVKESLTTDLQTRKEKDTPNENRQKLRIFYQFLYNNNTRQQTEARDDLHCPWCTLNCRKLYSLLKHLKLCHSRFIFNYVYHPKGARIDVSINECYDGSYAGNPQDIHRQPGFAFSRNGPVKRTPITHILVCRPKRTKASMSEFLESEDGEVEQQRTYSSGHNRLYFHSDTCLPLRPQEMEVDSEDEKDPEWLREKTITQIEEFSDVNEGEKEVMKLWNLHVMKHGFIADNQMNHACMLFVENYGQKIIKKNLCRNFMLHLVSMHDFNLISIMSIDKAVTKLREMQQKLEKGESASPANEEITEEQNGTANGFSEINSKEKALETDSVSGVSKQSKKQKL
T1 sequence (Q09028 whole entry partner): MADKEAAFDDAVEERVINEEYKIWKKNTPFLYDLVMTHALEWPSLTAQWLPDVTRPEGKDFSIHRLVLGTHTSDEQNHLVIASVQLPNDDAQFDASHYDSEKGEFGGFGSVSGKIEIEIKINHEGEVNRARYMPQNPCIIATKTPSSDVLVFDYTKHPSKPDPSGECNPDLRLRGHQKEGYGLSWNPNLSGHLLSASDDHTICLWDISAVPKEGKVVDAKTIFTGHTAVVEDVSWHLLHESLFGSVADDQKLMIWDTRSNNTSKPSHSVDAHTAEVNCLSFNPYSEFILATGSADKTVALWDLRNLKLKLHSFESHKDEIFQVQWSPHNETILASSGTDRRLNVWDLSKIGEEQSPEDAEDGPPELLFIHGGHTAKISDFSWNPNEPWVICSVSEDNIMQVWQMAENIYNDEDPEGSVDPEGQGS
T1 sequence (Q6ZN18 whole entry partner): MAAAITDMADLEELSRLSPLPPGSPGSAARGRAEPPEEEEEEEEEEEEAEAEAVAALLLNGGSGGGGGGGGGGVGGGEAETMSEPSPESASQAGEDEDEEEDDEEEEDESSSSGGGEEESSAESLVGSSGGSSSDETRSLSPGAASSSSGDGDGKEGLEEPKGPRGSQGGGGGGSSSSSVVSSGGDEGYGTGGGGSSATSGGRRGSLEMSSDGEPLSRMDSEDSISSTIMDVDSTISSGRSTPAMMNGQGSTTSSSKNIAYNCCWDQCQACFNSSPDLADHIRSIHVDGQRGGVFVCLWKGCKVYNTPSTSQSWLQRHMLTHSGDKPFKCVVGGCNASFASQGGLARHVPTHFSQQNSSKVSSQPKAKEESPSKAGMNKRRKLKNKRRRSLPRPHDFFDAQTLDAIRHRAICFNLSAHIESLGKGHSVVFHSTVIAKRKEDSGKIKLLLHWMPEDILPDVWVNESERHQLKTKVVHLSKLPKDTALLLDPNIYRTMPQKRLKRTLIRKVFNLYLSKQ
Description: Compounds contained herein were evaluated for their ability to inhibit the methyltransferase activity of EZH2 within the PRC2 complex. Human PRC2 complex was prepared by co-expressing each of the 5 member proteins (FLAG-EZH2, EED, SUZ12, RbAp48, AEBP2) in Sf9 cells followed by co-purification. Enzyme activity was measured in a scintillation proximity assay (SPA) where a tritiated methyl group is transferred from 3H-SAM to a lysine residue on Histone H3 of a mononucleosome, purified from HeLa cells. Mononucleosomes were captured on SPA beads and the resulting signal is read on a ViewLux plate reader.
Part A. Compound Preparation
• 1. Prepare 10 mM stock of compounds from solid in 100% DMSO. • 2. Set up an 11-point serial dilution (1:3 dilution, top concentration 10 mM) in 100% DMSO for each test compound in a 384 well plate leaving columns 6 and 18 for DMSO controls. • 3. Dispense 100 nL of compound from the dilution plate into reaction plates (Grenier Bio-One, 384-well, Cat#784075). Part B. Reagent Preparation Prepare the following solutions: • 1. 50 mM Tris-HCl, pH 8: Per 1 L of base buffer, combine 1 M Tris-HCl, pH 8 (50 mL) and distilled water (950 mL). • 2. 1× Assay Buffer: Per 10 mL of 1× Assay Buffer, combine 50 mM Tris-HCl, pH 8 (9958 uL), 1 M MgCl2 (20 uL), 2 M DTT (20 uL), and 10% Tween-20 (2 uL) to provide a final concentration of 50 mM Tris-HCl, pH 8, 2 mM MgCl2, 4 mM DTT, 0.002% Tween-20. • 3. 2× Enzyme Solution: Per 10 mL of 2× Enzyme Solution, combine 1× Assay Buffer and PRC2 complex to provide a final enzyme concentration of 10 nM. • 4. SPA Bead Suspension: Per 1 mL of SPA Bead Suspension, combine PS-PEI coated LEADSeeker beads (40 mg) and H2O (1 mL) to provide a final concentration of 40 mg/mL. • 5. 2× Substrate Solution: Per 10 mL of 2× Substrate Solution, combine 1× Assay Buffer (9728.55 uL), 800 ug/mL mononucleosomes (125 uL), 1 mM cold SAM (4 uL), and 7.02 uM 3H-SAM (142.45 uL; 0.55 mCi/mL) to provide a final concentration of 5 ug/mL nucleosomes, 0.2 uM cold SAM, and 0.05 uM 3H-SAM. • 6. 2.67× Quench/Bead Mixture: Per 10 mL of 2.67× Quench/Bead Mixture, combine ddH2O (9358 uL), 10 mM cold SAM (267 uL), 40 mg/mL Bead Suspension (375 uL) to provide a final concentration of 100 uM cold SAM and 0.5 mg/mL SPA beads. Part C. Assay Reaction in 384-well Grenier Bio-One Plates Compound Addition • 1. Dispense 100 nL/well of 100× Compound to test wells (as noted above). • 2. Dispense 100 nL/well of 100% DMSO to columns 6 & 18 for high and low controls, respectively. Assay • 1. Dispense 5 uL/well of 1× Assay Buffer to column 18 (low control reactions). • 2. Dispense 5 uL/well of 2× Enzyme Solution to columns 1-17, 19-24. • 3. Spin assay plates for ˜1 min at 500 rpm. • 4. Stack the assay plates, covering the top plate. • 5. Incubate the compound/DMSO with the enzyme for 30 min at room temperature. • 6. Dispense 5 uL/well of 2× Substrate Solution to columns 1-24. • 7. Spin assay plates for ˜1 min at 500 rpm. • 8. Stack the assay plates, covering the top plate. • 9. Incubate the assay plates at room temperature for 1 hour. Quench/Bead Addition • 1. Dispense 5 uL/well of the 3× Quench/Bead Mixture to columns 1-24. • 2. Seal the top of each assay plate with adhesive TopSeal. • 3. Spin assay plates for ˜1 min at 500 rpm. • 4. Equilibrate the plates for >20 min. Read plates • 1. Read the assay plates on the Viewlux Plate Reader utilizing the 613 nm emission filter with a 300 s read time.
Reagent addition can be done manually or with automated liquid handler. • The final DMSO concentration in this assay is 1%. • The positive control is in column 6; negative control is in column 18. • Final starting concentration of compounds is 100 µM. Results
Percent inhibition was calculated relative to the DMSO control for each compound concentration and the resulting values were fit using standard IC50 fitting parameters within the ABASE data fitting software package.

[2] = target: T1, EZH2 within the PRC2 complex; experiment: EZH2 methyltransferase SPA, biotinylated histone H3K27 peptide substrate (Assay Protocol 2); format: biochemical; settings: 3H-SAM, ≦10 nM approaches limit of detection
In short: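 Scintillation proximity read-out of 3H-methyl transfer onto biotinylated unmethylated H3K27 peptide (10 uM) captured on streptavidin beads; SAM 0.15 uM tritiated plus 2.85 uM cold.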

SMILES | IC50 [1] | IC50 [2]
CCN(c1scc(C(=O)NCc2c(C)cc(C)[nH]c2=O)c1C)C1CCNCC1 [Example 12, N-((4,6-dimethyl-2-oxo-1,2-dihydropyridin-3-yl)methyl)-5-(ethyl(piperidin-4-yl)amino)-4-methylthiophene-3-carboxamide hydrochloride] | ≤ 10 nM | 20 nM
CCN(c1csc(C(=O)NCc2c(C)cc(C)[nH]c2=O)c1C)[C@H]1CC[C@H](N(C)C)CC1 [Example 4, N-((4,6-dimethyl-2-oxo-1,2-dihydropyridin-3-yl)methyl)-4-(((trans)-4-(dimethylamino)cyclohexyl)(ethyl)amino)-3-methylthiophene-2-carboxamide] | 16 nM | 25 nM
CCN(c1csc(C(=O)NCc2c(C)cc(C)[nH]c2=O)c1C)C1CCOCC1 [Example 2, N-((4,6-Dimethyl-2-oxo-1,2-dihydropyridin-3-yl)methyl)-4-(ethyl(tetrahydro-2H-pyran-4-yl)amino)-3-methylthiophene-2-carboxamide] | 63 nM | 200 nM
CCN(c1sc(Br)c(C(=O)NCc2c(C)cc(C)[nH]c2=O)c1C)C1CCOCC1 [Example 19, 2-Bromo-N-((4,6-dimethyl-2-oxo-1,2-dihydropyridin-3-yl)methyl)-5-(ethyl(tetrahydro-2H-pyran-4-yl)amino)-4-methylthiophene-3-carboxamide] | ≤ 10 nM | 20 nM

Further lines, results first:

IC50 [1] | IC50 [2] | SMILES
251 nM | 3980 nM | Cc1cc(C)c(CNC(=O)c2csc(C3CCN(C(=O)OC(C)(C)C)C3)c2C)c(=O)[nH]1 (centres unmarked) [Example 24, tert-Butyl 3-(4-(((4,6-dimethyl-2-oxo-1,2-dihydropyridin-3-yl)methyl)carbamoyl)-3-methylthiophen-2-yl)pyrrolidine-1-carboxylate]
100 nM | 794 nM | CCN(c1scc(C(=O)NCc2c(C)cc(C)n(C)c2=O)c1C)C1CCOCC1 [Example 31, 5-(Ethyl(tetrahydro-2H-pyran-4-yl)amino)-4-methyl-N-((1,4,6-trimethyl-2-oxo-1,2-dihydropyridin-3-yl)methyl)thiophene-3-carboxamide]
398 nM | 3160 nM | CCC(c1scc(C(=O)NCc2c(C)cc(C)[nH]c2=O)c1C)N1CCOCC1 (centres unmarked) [Example 29, N-((4,6-dimethyl-2-oxo-1,2-dihydropyridin-3-yl)methyl)-4-methyl-5-(1-morpholinopropyl)thiophene-3-carboxamide]
